Assay results from patent US20210255193A1, “LYSINE REACTIVE PROBES AND USES THEREOF” (The Scripps Research Institute, priority 2017, published 2021).

Tests used:
Assay in all cases: competitive isoTOP-ABPP
Assay type in all cases: binding
[1] = biological target: T1, FECH Ferrochelatase, mitochondrial (Homo sapiens, UniProt P22830)
T1 construct: isoTOP-ABPP experiments performed in cell lysates (in vitro); endogenous in cells; host or cells: soluble proteome of human cancer cell lines (MDA-MB-231; Ramos and Jurkat also prepared)
T1 sequence (P22830 55-423): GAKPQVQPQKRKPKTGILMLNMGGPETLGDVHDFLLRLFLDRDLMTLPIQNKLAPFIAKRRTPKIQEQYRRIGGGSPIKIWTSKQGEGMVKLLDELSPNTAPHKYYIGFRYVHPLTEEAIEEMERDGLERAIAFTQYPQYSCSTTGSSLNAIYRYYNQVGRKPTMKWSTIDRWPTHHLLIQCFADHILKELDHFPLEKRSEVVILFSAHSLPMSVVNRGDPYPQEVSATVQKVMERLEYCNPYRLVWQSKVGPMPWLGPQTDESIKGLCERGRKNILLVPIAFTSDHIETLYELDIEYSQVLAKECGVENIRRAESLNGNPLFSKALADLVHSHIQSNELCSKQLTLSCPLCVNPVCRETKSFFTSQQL
Method: (§1) In vitro covalent fragment treatment for isoTOP-ABPP. All compounds were made up as solutions in DMSO (100×) and were used at a final concentration of 50 μM for activated esters and 100 μM for guanidinylating agents. For each profiling sample, 0.5 ml of lysate was treated with 5 μl of the 100× compound stock solution or 5 μl of DMSO. Samples were treated with activated esters for
(§2) STP-alkyne labeling and click chemistry. For concentration-dependent reactivity measurements by isoTOP-ABPP, 0.5 ml proteome aliquots were treated at ambient temperature with 1 mM STP-alkyne 1 (5 μl of 100 mM stock in DMSO) and 0.1 mM STP alkyne 1 (5 μl of 10 mM stock in DMSO), respectively. For competitive isoTOP-ABPP, after in vitro fragment treatment (detailed above), the samples were labeled for 1 h at ambient temperature with 0.1 mM STP-alkyne 1 (5 μl of 10 mM stock in DMSO). Samples were conjugated by copper-mediated azide-alkyne cycloaddition (CuAAC) to either the light (1 mM STP-alkyne or fragment treated) or heavy (0.1 mM STP-alkyne or DMSO treated) TEV tags (10 μl of 5 mM stocks in DMSO, final concentration=100 μM) using tris(2-carboxyethyl)phosphine hydrochloride
(§3) R value calculation and processing. The ratios of light and heavy MS1 peaks for each unique peptide were quantified with a CIMAGE software using default parameters (3 MS1 acquisitions per peak and signal to noise threshold set to 2.5). For reactivity measurements by isoTOP-ABPP, the R value was calculated from the ratio of MS1 peak areas, comparing the 1 mM STP alkyne sample (light TEV tag) with the 0.1 mM STP alkyne sample (heavy TEV tag). For competitive isoTOP-ABPP, the R value was calculated from the ratio of MS1 peak areas, comparing the DMSO treated sample (heavy TEV tag) with the compound treated sample (light TEV tag). […] Ratios for unique peptide entries are calculated for each experiment; overlapping peptides with the same modified lysine (for example, different charge states, MudPIT chromatographic steps or tryptic termini) are grouped together and the median ratio is reported as the final ratio (R). The peptide ratios reported by CIMAGE were further filtered to ensure the removal or correction of low-quality ratios in each individual data set. The quality filters applied were the following: removal of half tryptic peptides; for ratios with high standard deviations from the median (90% of the median or above) the lowest ratio was taken instead of the median; removal of peptides with R=20 and only a single MS2 event triggered during the elution of the parent ion; manual annotation of all the peptides with ratios of 20, removing any peptides with low quality elution profiles that remained after the previous curation steps (only done for competitive isoTOP-ABPP).
(§4) Cross-data processing for fragment screening. For compound treated samples, biological replicates of the same condition were averaged, if the standard deviation was below 60% of the mean; otherwise, for lysines with at least one R value <4 for a particular compound, the lowest value of the ratio set was taken. For lysines, where all R values for a particular compound were ≥4, the average was reported. For peptides containing several possible modified lysines, the lysine with the highest number of quantification events was used for analysis and the remaining, redundant peptides were reported as alternative modification sites. Peptides included in the aggregate dataset (those used for further bioinformatics and statistical analyses) were required to have been quantified in 2 experiments for competitive isoTOP-ABPP. Lysines were categorized as liganded, if they had at least one ratio R≥4 (hit fragments). For liganded lysines with R=20 for all liganding events, lysines were required to have been quantified with R=20 in two separate experiments and were further required to have been quantified with R<20 in one additional experiment.

OLA1 Obg-like ATPase 1 = biological target: T2, OLA1 Obg-like ATPase 1 (Homo sapiens, UniProt Q9NTK5)
T2 construct: endogenous in cells; host or cells: MDA-MB-231 (soluble fraction of lysate)
Method: as §1, §2, §3, §4

[2] = biological target: T3, ABHD10 Abhydrolase domain-containing protein 10, mitochondrial (Homo sapiens, UniProt Q9NUJ1); parameters: key to isoTOP-ABPP reactivity ratio at lysine Q9NUJ1_K185: R = MS1 peak area ratio, DMSO (heavy) / compound-treated (light); capped at 20
T3 construct: endogenous in cells; host or cells: MDA-MB-231 lysate
T3 sequence (Q9NUJ1 53-306): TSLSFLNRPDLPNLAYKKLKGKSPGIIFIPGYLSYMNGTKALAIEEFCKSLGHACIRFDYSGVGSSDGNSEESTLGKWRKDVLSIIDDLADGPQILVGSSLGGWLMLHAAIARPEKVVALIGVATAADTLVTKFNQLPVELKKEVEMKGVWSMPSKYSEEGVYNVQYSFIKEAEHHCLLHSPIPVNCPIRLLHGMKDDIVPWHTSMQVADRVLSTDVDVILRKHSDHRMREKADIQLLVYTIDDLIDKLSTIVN
Method: as §1, §2, §3, §4

[3] = biological target: T4, MAP1LC3B Microtubule-associated proteins 1A/1B light chain (Homo sapiens, UniProt Q9GZQ8); parameters: key to isoTOP-ABPP reactivity ratio at lysine Q9GZQ8_K51: R = MS1 peak area ratio, DMSO (heavy) / compound-treated (light)
T4 construct: isoTOP-ABPP experiments performed in cell lysates (in vitro); endogenous in cells; host or cells: soluble proteome of human cancer cell lines (MDA-MB-231; Ramos and Jurkat also prepared)
Method: as §1, §2, §3, §4

Row | SMILES | isoTOP-ABPP reactivity ratio at lysine P22830_K304 ([1]; 50 uM, 231 sol, in vitro) | isoTOP-ABPP reactivity ratio at lysine Q9NTK5_K248 (OLA1 Obg-like ATPase 1; 50 uM, 231 sol, in vitro) | isoTOP-ABPP reactivity ratio at lysine Q9NUJ1_K185 ([2]; 50 uM, 231 sol, in vitro) | isoTOP-ABPP reactivity ratio at lysine Q9GZQ8_K51 ([3]; 50 uM, 231 sol, in vitro) | further results
1 | O=C(CC12CC3CC(CC(C3)C1)C2)Oc1ccc([N+](=O)[O-])cc1[N+](=O)[O-] [fragment 38, 2,4-Dinitrophenyl 2-(adamantan-1-yl)acetate] | – | – | – | – | isoTOP-ABPP ratio (R) at liganded lysine P22830_K304 ([1]; 50 uM, in vitro, sol, 231): 1.8; isoTOP-ABPP ratio (R) at liganded lysine Q9NTK5_K248 (OLA1 Obg-like ATPase 1; 50 uM, in vitro, sol, 231): 0.9; isoTOP-ABPP ratio (R) at liganded lysine Q9NUJ1_K185 ([2]; 50 uM, in vitro, sol, 231): 3.3; isoTOP-ABPP ratio (R) at liganded lysine Q9GZQ8_K51 ([3]; 50 uM, in vitro, sol, 231): 0.8
2 | O=C(CN1C(=O)c2ccccc2C1=O)Oc1c(F)c(F)c(F)c(F)c1F [fragment 27, Pentafluorophenyl 2-(1,3-dioxoisoindolin-2-yl)acetate] | 1.5 | 1.1 | 1.9 | 1.0 | –
3 | O=C(CCc1cn(-c2ccccc2)nc1-c1ccccc1)Oc1c(F)c(F)c(F)c(F)c1F [fragment 19, Pentafluorophenyl 3-(1,3-diphenyl-1H-pyrazol-4-yl)propanoate] | – | – | – | – | R value (DMSO/fragment) for probe 1 labeling ([1]; P22830_K304, 50 uM, 231 sol, in vitro): 1.8; R value (DMSO/fragment) for probe 1 labeling (OLA1 Obg-like ATPase 1; Q9NTK5_K248, 50 uM, 231 sol, in vitro): 1.0; R value (DMSO/fragment) for probe 1 labeling ([2]; Q9NUJ1_K185, 50 uM, 231 sol, in vitro): 1.2; R value (DMSO/fragment) for probe 1 labeling ([3]; Q9GZQ8_K51, 50 uM, 231 sol, in vitro): 1.0
4 | COc1cc(CCC(=O)Oc2ccc([N+](=O)[O-])cc2[N+](=O)[O-])cc(OC)c1OC [fragment 33, 2,4-Dinitrophenyl 3-(3,4,5-trimethoxyphenyl)propanoate] | 1.7 | 1.0 | 2.1 | 0.8 | –
5 | O=C(Oc1ccc([N+](=O)[O-])cc1[N+](=O)[O-])c1cc(C(F)(F)F)cc(C(F)(F)F)c1 [fragment 31, 2,4-Dinitrophenyl 3,5-bis(trifluoromethyl)benzoate] | 3.2 | 1.0 | 4.4 | 1.1 | –
6 | O=C(CCc1cn(-c2ccccc2)nc1-c1ccccc1)Oc1ccc([N+](=O)[O-])cc1[N+](=O)[O-] [fragment 29, 2,4-Dinitrophenyl 3-(1,3-diphenyl-1H-pyrazol-4-yl)propanoate] | 5.4 | 0.9 | 1.3 | 0.8 | –
7 | O=C(Oc1c(F)c(F)cc(F)c1F)c1cc(C(F)(F)F)cc(C(F)(F)F)c1 [fragment 48, 2,3,5,6-Tetrafluorophenyl 3,5-bis(trifluoromethyl)benzoate] | – | – | – | – | isoTOP-ABPP ratio, lysine P22830_K304 ([1]; 50 uM_231_sol_in vitro): 1.1; isoTOP-ABPP ratio, lysine Q9NTK5_K248 (OLA1 Obg-like ATPase 1; 50 uM_231_sol_in vitro): 1.0; isoTOP-ABPP ratio, lysine Q9NUJ1_K185 ([2]; 50 uM_231_sol_in vitro): 2.7; isoTOP-ABPP ratio, lysine Q9GZQ8_K51 ([3]; 50 uM_231_sol_in vitro): 0.8
